Results taken from patent publication US20260015372A1, “Organophosphorous Compounds and Uses Thereof” (priority 2022, published 2026).
Entries after “also recorded” stand apart in the source; their conditions may differ. Where two headings read alike, the source gives them in different places.

Legend:
ACHE [1] = target: T1, ACHE (Homo sapiens (Human), UniProt P22303); test: ACHE inhibition, colorimetric with substrate and Ellman's reagent; assay type: biochemical; conditions: for Inhibition of ACHE: [ATC] = 0.1 mM
T1 sequence (P22303 32-614): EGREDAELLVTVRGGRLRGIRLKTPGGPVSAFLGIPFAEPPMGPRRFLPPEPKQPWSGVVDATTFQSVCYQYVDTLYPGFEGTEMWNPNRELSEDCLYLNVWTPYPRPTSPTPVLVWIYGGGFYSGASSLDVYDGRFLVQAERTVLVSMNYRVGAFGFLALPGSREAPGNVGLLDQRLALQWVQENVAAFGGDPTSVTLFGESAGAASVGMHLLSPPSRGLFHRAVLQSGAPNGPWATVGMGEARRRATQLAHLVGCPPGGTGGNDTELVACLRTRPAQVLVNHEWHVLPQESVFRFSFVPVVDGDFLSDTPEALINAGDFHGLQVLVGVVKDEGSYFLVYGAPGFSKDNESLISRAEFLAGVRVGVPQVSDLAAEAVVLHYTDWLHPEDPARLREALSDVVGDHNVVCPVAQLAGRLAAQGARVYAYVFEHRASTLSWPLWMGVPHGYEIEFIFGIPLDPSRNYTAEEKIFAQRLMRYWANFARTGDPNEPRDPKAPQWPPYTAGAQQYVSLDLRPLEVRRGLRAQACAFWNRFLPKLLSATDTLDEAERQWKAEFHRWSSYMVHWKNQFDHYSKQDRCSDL

BCHE [2] = target: T2, BCHE (Homo sapiens (Human), UniProt P06276); test: biochemical; assay type: biochemical; conditions: for Mode of Inhibition: Irreversible = enzyme covalently modified
T2 sequence (P06276 29-602, species assumed): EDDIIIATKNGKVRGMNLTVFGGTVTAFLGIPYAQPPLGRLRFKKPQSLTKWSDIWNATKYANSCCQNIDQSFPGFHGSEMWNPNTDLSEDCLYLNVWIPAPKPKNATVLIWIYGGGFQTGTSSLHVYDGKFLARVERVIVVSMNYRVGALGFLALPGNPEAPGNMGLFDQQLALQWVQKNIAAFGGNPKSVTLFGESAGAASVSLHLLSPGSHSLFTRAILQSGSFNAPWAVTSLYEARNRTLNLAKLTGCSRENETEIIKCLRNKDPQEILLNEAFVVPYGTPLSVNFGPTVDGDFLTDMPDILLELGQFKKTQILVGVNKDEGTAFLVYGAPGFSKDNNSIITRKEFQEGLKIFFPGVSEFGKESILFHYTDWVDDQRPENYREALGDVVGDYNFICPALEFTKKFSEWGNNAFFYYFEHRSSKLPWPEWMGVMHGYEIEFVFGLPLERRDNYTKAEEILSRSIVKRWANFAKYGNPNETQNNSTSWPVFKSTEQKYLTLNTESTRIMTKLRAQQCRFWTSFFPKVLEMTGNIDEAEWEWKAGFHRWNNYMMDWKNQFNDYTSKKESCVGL
Protocol: The compounds referred to herein have BCHE inhibitory activity. To determine the inhibitory values, enzymes were incubated for 2 hours in the presence of varying concentrations of compound prior to activity measurements. Activity is then measured colorimetrically upon addition of substrate and Ellman's reagent.

Aβ (1-40) peptide = Aβ (1-40) peptide (Homo sapiens, UniProt P05067); test: Thioflavin T fluorescence assay of β-amyloid peptide aggregation; assay type: biochemical; conditions: 30 μM peptide, 25° C., 2 hours, ThT fluorescence
Protocol: Neurotoxic plaques, i.e., aggregates of β-amyloid peptide, bind thioflavin T (ThT) and show significant fluorescence.
Aβ (1-40) peptide was solubilized in hexafluoroisopropanol (HFIP). A solution of 25 μM ThT was prepared in 0.025 M phosphate buffer, pH 6.0. Peptide was dissolved in 0.01 M PBS; 0.1M NaCl, pH7.4 to a final concentration of 30 μM. Inhibitors were prepared in methanol. The final concentration of HFIP and methanol were 2% and 10% (v/v) respectively. The control sample consisted peptide incubated in PBS/2% HFI/10% methanol without inhibitor. All samples were mixed and incubated at 25° C. for 2 hours. Fluorescence was measured by mixing 470 μL of ThT solution with 30 μL of the protein solution. Excitation and emission wavelengths were 440 nm with 5 nm slit width and 485 nm with 10 nm slit width, respectively. Biological activity was calculated as percent of inhibitory activity of inhibitor at varying concentration was calculated using the following equation: Vi=100−[(Fi−Fb)/F0]×100. The higher the Vi, the less aggregation of amyloid peptide.

[3] = target: serum butyrylcholinesterase (Mus musculus (Mouse), UniProt Q03311); test: In vivo serum butyrylcholinesterase activity; parameters: species or system transgenic Alzheimer's mice; conditions: 10 mg and 20 mg doses over 11 months and 13 months; listed as DB2CIPP
Sequence of serum butyrylcholinesterase (Q03311 30-603 limits assumed): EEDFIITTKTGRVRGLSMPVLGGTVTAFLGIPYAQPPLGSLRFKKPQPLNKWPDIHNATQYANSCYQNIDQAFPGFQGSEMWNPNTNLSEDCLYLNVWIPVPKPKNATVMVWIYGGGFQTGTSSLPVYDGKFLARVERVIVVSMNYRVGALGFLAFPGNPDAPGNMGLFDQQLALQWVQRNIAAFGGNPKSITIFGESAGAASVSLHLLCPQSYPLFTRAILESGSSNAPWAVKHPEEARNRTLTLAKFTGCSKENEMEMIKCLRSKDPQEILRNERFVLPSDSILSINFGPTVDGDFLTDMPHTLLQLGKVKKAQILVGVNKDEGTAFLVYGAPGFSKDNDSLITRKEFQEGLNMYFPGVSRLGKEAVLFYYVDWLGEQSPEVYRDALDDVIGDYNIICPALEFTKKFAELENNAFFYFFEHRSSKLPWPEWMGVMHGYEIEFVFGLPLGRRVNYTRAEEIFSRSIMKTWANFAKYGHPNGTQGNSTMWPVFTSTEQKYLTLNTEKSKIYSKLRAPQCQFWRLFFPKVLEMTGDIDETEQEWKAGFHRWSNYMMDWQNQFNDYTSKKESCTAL
Description: (§1) DB2CIPP Testing Results Inhibition of BChE in brain and serum. Di-n-butyl 2 chlorophenyl phosphate (DB2CIPP) inhibits BChE in brain and serum without inhibiting AChE in serum (see FIG. 5, FIG. 7, and FIG. 8).

[4] = target: hippocampal butyrylcholinesterase (Mus musculus (Mouse), UniProt Q03311); test: In vivo hippocampal butyrylcholinesterase activity; parameters: species or system transgenic Alzheimer's mice; conditions: 10 mg and 20 mg doses over 11 months; listed as DB2CIPP
Sequence of hippocampal butyrylcholinesterase (Q03311 30-603 limits assumed): as above
Description: as §1

[5] = target: serum acetylcholinesterase (Mus musculus (Mouse), UniProt P21836); test: In vivo serum acetylcholinesterase activity; parameters: species or system transgenic Alzheimer's mice; conditions: 10 mg and 20 mg doses over 11 months and 13 months; listed as DB2CIPP
Sequence of serum acetylcholinesterase (P21836 32-614 limits assumed): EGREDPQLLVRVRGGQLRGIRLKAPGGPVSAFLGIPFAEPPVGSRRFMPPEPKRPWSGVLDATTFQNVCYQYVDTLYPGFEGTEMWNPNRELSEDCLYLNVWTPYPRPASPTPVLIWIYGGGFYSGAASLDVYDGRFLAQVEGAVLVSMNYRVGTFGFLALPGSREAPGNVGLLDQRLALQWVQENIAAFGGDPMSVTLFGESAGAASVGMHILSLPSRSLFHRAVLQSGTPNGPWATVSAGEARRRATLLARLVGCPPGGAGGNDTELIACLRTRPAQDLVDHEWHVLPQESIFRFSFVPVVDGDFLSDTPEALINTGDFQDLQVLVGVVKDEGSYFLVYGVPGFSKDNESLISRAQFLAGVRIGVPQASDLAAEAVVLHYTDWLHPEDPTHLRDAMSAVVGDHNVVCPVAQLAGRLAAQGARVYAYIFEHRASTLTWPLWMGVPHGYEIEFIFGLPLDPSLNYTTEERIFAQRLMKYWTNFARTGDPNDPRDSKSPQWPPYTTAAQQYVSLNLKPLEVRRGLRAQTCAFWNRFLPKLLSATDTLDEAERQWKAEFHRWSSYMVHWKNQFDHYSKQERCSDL
Description: as §1

β-amyloid plaque = test: In vivo β-amyloid plaque formation, immunohistochemistry; parameters: species or system transgenic Alzheimer's mice
Description: Images show immunohistochemistry of 13-month transgenic Alzheimer's disease mice brains at subiculum region of hippocampus, treated with DB2CIPP and DMSO control beginning at 9 months. […] Selective inhibition of butyrylcholinesterase in the brain is widely documented as a potential treatment for Alzheimer's disease and dementia, by improving cognition and modulating neuropathological markers of the disease. As an inhibitor of butyrylcholinesterase, DB2CIPP may also be used to inhibit or slow the progression of the Alzheimer's-like symptoms seen in long COVID.

[6] = In vivo blood brain barrier crossing; conditions: other in vivo tests
BCHE [7] = target: T2, BCHE; assay type: biochemical; conditions: 20 μM inhibitor, 2 minutes; Activity of Inhibitor incubated enzyme/Activity of unincubated enzyme
ACHE [8] = target: T1, ACHE; test: Relative Activity of ACHE, 20 μM inhibitor for 2 minutes; assay type: biochemical; conditions: Activity of Inhibitor incubated enzyme/Activity of unincubated enzyme
Protocol: In order to compare the relative inhibitory activity of the five compounds 27, 35, 89, 90 and 92 against BCHE and ACHE, a solution of each enzyme was incubated with 20 μM of the inhibitor for 2 minutes, and the enzyme activity determined. Table 5 lists the Relative Activity (=Activity of Inhibitor incubated enzyme/Activity of unincubated enzyme).

[9] = enzyme incubated 2 hours with compound
[10] = enzyme incubated 2 hours with compound, read-out: BCHE Ki ± SEM

Q: With `CCCCOP(=O)(OCC)Oc1ccccc1` (racemic) [Compound 99, (±)-n-Butyl ethyl phenyl phosphate] as the compound, how does the “Inhibition of ACHE” value (ACHE [1]; inhibitor 3 mM) read?
A: Its value is “^f<8% inhibition at [2] = 3 mM and [ATC] = 0.1 mM”.

Q: Which results are given for `CCCCOP(=O)(OCCCC)Oc1ccccc1Cl` [Compound 9, Di-n-butyl 2-chlorophenyl phosphate]?
A: IC50 (BCHE [2]): 0.00069 µM; Selectivity toward BCHE over ACHE (BCHE [2]; ACHE IC50 vs BCHE IC50): approximately 68,000 fold; Mode of Inhibition (BCHE [2]): Irreversible^g; IC50 (BCHE [2]; [9]): 0.00069 µM; IC50 (ACHE [1]): 47 µM; IC50 (ACHE [1]; [9]): 47 µM; Inhibition of aggregation of β-amyloid peptides (Aβ (1-40) peptide): did not inhibit; Inhibition of serum butyrylcholinesterase activity [3]: significant inhibition; Inhibition of hippocampal butyrylcholinesterase activity [4]: significant inhibition; Serum acetylcholinesterase activity [5]: substantially not altered; also recorded: not significantly altered; Beta amyloid plaques immunopositive staining in the hippocampus (β-amyloid plaque; 10 mg or 20 mg doses over 13 months, vs untreated mice): reduced; Inhibition of β-amyloid plaque formation (β-amyloid plaque; 13-month mice, subiculum region of hippocampus, treated beginning at 9 months, vs DMSO control, listed as DB2CIPP): significant inhibition; Ability to cross the blood brain barrier (BBB) [6]: cross the blood brain barrier

Q: Which Ki (BCHE [2]) does the source give for `CCCCOP(=O)(OCCCC)Oc1cc(C)cc(C)c1` [Compound 27, Di-n-butyl 3,5-dimethylphenyl phosphate] here?
A: The Ki was 1 µM.

Q: What about the “Mode of Inhibition” value (BCHE [2]) of the same compound?
A: Its value is “Reversible”.

Q: What about the “Relative Activity of BCHE” value (BCHE [7]) of the same compound?
A: The value was 0.45.

Q: What about the “Relative Activity of ACHE” value (ACHE [8]) of the same compound?
A: Its value is 0.93.

Q: For `CCCCOP(=O)(OCCCC)Oc1ccc2ccccc2c1` [Compound 35, Di-n-butyl 2-napthyl phosphate], which Ki (BCHE [2]) is on record?
A: The Ki was 1.9 µM.

Q: And the “Mode of Inhibition” value (BCHE [2])?
A: Its value is “Reversible”.

Q: What about the “Relative Activity of BCHE” value (BCHE [7]) of the same compound?
A: The value was 0.10.

Q: And the “Relative Activity of ACHE” value (ACHE [8])?
A: Its value is 0.84.

Q: With `CCOP(=O)(OCC)OCCCOP(=O)(OCC)OCC` [Compound 53, Tetraethyl propane-1,3-diyl bisphosphate] as the compound, how does the IC50 (BCHE [2]; [9]) read?
A: The IC50 was 8.26 µM.

Q: For `CCOP(=O)(OCC)OCCCCOP(=O)(OCC)OCC` [Compound 54, Tetraethyl butane-1,4-diyl bisphosphate], which IC50 (BCHE [2]; [9]) is on record?
A: The IC50 was 8.2 µM.

Q: Which IC50 (BCHE [2]; [9]) does the source give for `CCOP(=O)(OCC)OCCCCCOP(=O)(OCC)OCC` [Compound 55, Tetraethyl pentane-1,5-diyl bisphosphate] here?
A: Its IC50 is 35.4 µM.

Q: Which results are given for `CCOP(=O)(OCC)OCCCCCCOP(=O)(OCC)OCC` [Compound 56, Tetraethyl hexane-1,6-diyl bisphosphate]?
A: Mode of Inhibition (BCHE [2]): Reversible; Ki (BCHE [2]; [10]): 228 µM; Inhibition of aggregation of β-amyloid peptides (Aβ (1-40) peptide): significantly inhibited

Q: Which IC50 (BCHE [2]; [9]) does the source give for `CCOP(=O)(OCC)OCCCCCCCOP(=O)(OCC)OCC` [Compound 57, Tetraethyl heptane-1,7-diyl bisphosphate] here?
A: Its IC50 is 40.1 µM.

Q: Which IC50 (BCHE [2]; [9]) does the source give for `CCOP(=O)(OCC)OCCOCCOP(=O)(OCC)OCC` [Compound 58, Tetraethyl 3-oxapentane-1,5-diyl bisphosphate] here?
A: Its IC50 is 11.1 µM.

Q: For `CCCCOP(=O)(OCCCC)OCCCOP(=O)(OCCCC)OCCCC` [Compound 59, Tetrabutyl propane-1,3-diyl bisphosphate], which IC50 (BCHE [2]; [9]) is on record?
A: The IC50 was 0.79 µM.

Q: For `CCCCOP(=O)(OCCCC)OCCCCOP(=O)(OCCCC)OCCCC` [Compound 60, Tetrabutyl butane-1,4-diyl bisphosphate], which IC50 (BCHE [2]; [9]) is on record?
A: Its IC50 is 88.1 µM.

Q: For `CCCCOP(=O)(OCCCC)OCCCCCOP(=O)(OCCCC)OCCCC` [Compound 61, Tetrabutyl pentane-1,5-diyl bisphosphate], which IC50 (BCHE [2]; [9]) is on record?
A: Its IC50 is 2.72 µM.

Q: Which “Mode of Inhibition” value (BCHE [2]) does the source give for `CCCCOP(=O)(OCCCC)OCCCCCCOP(=O)(OCCCC)OCCCC` [Compound 62, Tetrabutyl hexane-1,6-diyl bisphosphate] here?
A: The value was “Reversible”.

Q: And the Ki (BCHE [2]; [10])?
A: The Ki was 4 µM.

Q: What about the “Inhibition of aggregation of β-amyloid peptides” value (Aβ (1-40) peptide) of the same compound?
A: The value was “significantly inhibited”.

Q: For `CCCCOP(=O)(OCCCC)OCCCCCCCOP(=O)(OCCCC)OCCCC` [Compound 63, Tetrabutyl heptane-1,7-diyl bisphosphate], which IC50 (BCHE [2]; [9]) is on record?
A: The IC50 was 3.95 µM.

Q: Which IC50 (BCHE [2]; [9]) does the source give for `CCCCOP(=O)(OCCCC)OCCCCCCCCOP(=O)(OCCCC)OCCCC` [Compound 64, Tetrabutyl octane-1,8-diyl bisphosphate] here?
A: Its IC50 is 2.39 µM.

Q: For `CCCCOP(=O)(OCCCC)OCCOCCOP(=O)(OCCCC)OCCCC` [Compound 65, Tetrabutyl 3-oxapentane-1,5-diyl bisphosphate], which IC50 (BCHE [2]; [9]) is on record?
A: The IC50 was 31.2 µM.

Q: Which IC50 (BCHE [2]; [9]) does the source give for `CCCCOP(=O)(OCCC=CCCOP(=O)(OCCCC)OCCCC)OCCCC` [Compound 66, Tetrabutyl 3-hexene-1,6-diyl bisphosphate] here?
A: Its IC50 is 1.2 µM.

Q: For `O=P(OCCCCCCOP(=O)(Oc1ccccc1)Oc1ccccc1)(Oc1ccccc1)Oc1ccccc1` [Compound 67, Tetraphenyl hexane-1,6-diyl bisphosphate], which “Mode of Inhibition” value (BCHE [2]) is on record?
A: The value was “Reversible”.

Q: And the “Inhibition of aggregation of β-amyloid peptides” value (Aβ (1-40) peptide)?
A: The value was “significantly inhibited”.

Q: Which results are given for `CCCCOP(=O)(Cc1cccc2ccccc12)OCCCC` [Compound 89, Di-n-butyl 1-naphthylmethylphosphonate]?
A: Mode of Inhibition (BCHE [2]): Irreversible^g; Relative Activity of BCHE (BCHE [7]): 0.47; Relative Activity of ACHE (ACHE [8]): 0.96

Q: Which “Mode of Inhibition” value (BCHE [2]) does the source give for `CCCCOP(=O)(Cc1ccc2ccccc2c1)OCCCC` [Compound 90, Di-n-butyl 2-naphthylmethylphosphonate] here?
A: Its value is “Irreversible^g”.

Q: And the “Relative Activity of BCHE” value (BCHE [7])?
A: Its value is 0.45.

Q: What about the “Relative Activity of ACHE” value (ACHE [8]) of the same compound?
A: The value was 0.95.

Q: With `CCCCOP(=O)(Cc1cc(C)cc(C)c1)OCCCC` [Compound 92, Di-n-butyl 3,5-dimethylbenzylphosphonate] as the compound, how does the “Mode of Inhibition” value (BCHE [2]) read?
A: The value was “Irreversible^g”.

Q: What about the “Relative Activity of BCHE” value (BCHE [7]) of the same compound?
A: Its value is 0.64.

Q: And the “Relative Activity of ACHE” value (ACHE [8])?
A: Its value is 0.99.

Q: For `COP(=O)(OC)Oc1ccccc1` [Compound 93, Dimethyl phenyl phosphate], which Ki (BCHE [2]) is on record?
A: Its Ki is 1700 µM.

Q: And the Ki (ACHE [1])?
A: The Ki was 6500 µM.

Q: Which results are given for `CCOP(=O)(OCC)Oc1ccccc1` [Compound 94, Diethyl phenyl phosphate]?
A: Ki (BCHE [2]): 55 µM; Ki (ACHE [1]): 3100 µM

Q: With `CCCOP(=O)(OCCC)Oc1ccccc1` [Compound 95, Di-n-propyl phenyl phosphate] as the compound, how does the “Inhibition of ACHE” value (ACHE [1]; inhibitor 5 mM) read?
A: The value was “^b<20% Inhibition at [lc] = 5 mM and [ATC] = 0.1 mM”.

Q: For `CCCCOP(=O)(OCCCC)Oc1ccccc1` [Compound 96, Di-n-butyl phenyl phosphate], which “Inhibition of ACHE” value (ACHE [1]; inhibitor 1 mM) is on record?
A: Its value is “^cNo inhibition at [1d] = 1 mM and [ATC] = 0.1 mM”.

Q: Which results are given for `CCCCCOP(=O)(OCCCCC)Oc1ccccc1` [Compound 97, Di-n-pentyl phenyl phosphate]?
A: Ki (BCHE [2]): 6 µM; Mode of Inhibition (BCHE [2]): ^aPartial competitive.; Inhibition of ACHE (ACHE [1]; inhibitor 3 mM): ^d<8% Inhibition at [le] = 3 mM and [ATC] = 0.1 mM.

Q: For `O=P(Oc1ccccc1)(OC1CCCCC1)OC1CCCCC1` [Compound 98, Di-cyclohexyl phenyl phosphate], which Ki (BCHE [2]) is on record?
A: Its Ki is 7 µM.

Q: What about the “Mode of Inhibition” value (BCHE [2]) of the same compound?
A: Its value is “^aPartial competitive”.

Q: And the “Inhibition of ACHE” value (ACHE [1]; inhibitor 3 mM)?
A: The value was “^eNo inhibition at [1f] = 3 mM and [ATC] = 0.1 mM”.
